Columns and labels:
[1] = Stability of PAA in compositions and in presence of chelators (PAA test strips); settings: for PAA present immediately after preparation of the solution / time after which no PAA was detectable: chelator plus 0.170 g of 5% PAA in 100 g DI water, PAA test strips
Protocol: A sanitizer composition containing 0.25% SLS, 0.05% LA, 0.125% magnesium sulfate, and 85 ppm PAA was prepared in the 300 ppm total hardness water described in Example 8. This solution was applied to a stainless steel cabinet (34.5 in.×72 in.) in the meat pilot plant with a FOAM-IT® 5 unit using the driest foam setting.
This Example illustrates the effect of chelating agent on sanitizer compositions. The amount of chelator added is intended to chelate a concentration of ions corresponding to 300 ppm hard water, which corresponds to 3 millimolar. Because water will often have a hardness of less than 300 ppm, leaving an excess of chelator, it is important to evaluate the stability of PAA with respect to the chelator. The excess chelator could cause increases in pH, which would decrease the amount of PAA present according to the reaction (Preparation, Properties, Reactions and Uses of Organic Peracids and their Salts, FMC Corporation, Inorganic Chemicals Division, New York, N.Y., 1964, p. 34):
Therefore, in anticipation of the worst case where soft water is used to prepare the solution from which the foam is generated, the stability of PAA in the presence of at least 3 millimolar of chelator was evaluated.
0.125 g of Na4EDTA and 0.170 g of 5% PAA were added to 100 g of DI water.
0.161 g of Na3EDTA and 0.170 g of 5% PAA were added to 100 g of DI water.
0.233 g of Na2EDTA and 0.170 g of 5% PAA were added to 100 g of DI water.

pH of solutions = assay type: physicochemical; settings: chelator solutions in DI water in the absence of PAA, pH test paper
[2] = Turbidity of lauryl sulfate solutions in hard water (Example 8); assay type: physicochemical
Protocol: When a 0.25% MLS solution was prepared in water containing 333 ppm of calcium chloride, the solution became turbid after about 2 min.
Hard water contains both magnesium and calcium ions. For a 300 ppm total hardness (expressed as calcium carbonate), there is about 200 ppm hardness as calcium and 100 ppm hardness as magnesium (AOAC Official Methods of Analysis, 1995, Chapter 6, p. 10). […] When 0.25% solution of MLS was prepared in 300 ppm total hardness water containing calcium and magnesium ions in this ratio, the solution became turbid after about 5 minutes.

[3] = 0.25% solution in 300 ppm total hardness water containing calcium and magnesium ions
[4] = 0.25% solution in water containing 333 ppm of calcium chloride

Compound | stability of PAA in the presence of the chelator [1] | PAA present immediately after preparation of the solution [1] | pH (pH of solutions) | other results
O=P([O-])(O)CN(CCN(CCN(CP(=O)(O)O)CP(=O)(O)O)CP(=O)(O)O)CP(=O)(O)O.[Na+] [DEQUEST 2066] | not found any chelator in salt form in which PAA is stable | – | – | –
CC(O)(P(=O)(O)O)P(=O)(O)O [DEQUEST® 2010, 1-hydroxyethylidene-1,1-diphosphonic acid] | stable | – | – | –
O=C([O-])CN(CCN(CC(=O)[O-])CC(=O)O)CC(=O)O.[Na+].[Na+] [Na2EDTA] | – | at least 50 ppm | 4 | time after which no PAA was detectable [1]: ~10 min
O=C([O-])CN(CCN(CC(=O)[O-])CC(=O)O)CC(=O)[O-].[Na+].[Na+].[Na+] [Na3EDTA] | – | at least 50 ppm | 7.5 | time after which no PAA was detectable [1]: ~5 min
O=C([O-])CN(CCN(CC(=O)[O-])CC(=O)[O-])CC(=O)[O-].[Na+].[Na+].[Na+].[Na+] [Na4EDTA] | – | no PAA present | 10 | –
CCCCCCCCCCCCOS(=O)(=O)[O-].[Na+] [SLS, Sodium lauryl sulfate] | – | – | – | time until solution became turbid [2, 3]: immediately became turbid; time until solution became turbid [2, 4]: instantly became turbid
O=C([O-])CN(CCN(CC(=O)[O-])CC(=O)[O-])CCN(CC(=O)[O-])CC(=O)[O-].[Na+].[Na+].[Na+].[Na+].[Na+] [pentasodium salt of diethylenetriaminepentaacetic acid] | not found any chelator in salt form in which PAA is stable | – | – | –
Magnesium lauryl sulfate [MLS] | – | – | – | time until solution became turbid [2, 3]: about 5 minutes; time until solution became turbid [2, 4]: about 2 min
sodium salts of diethylene triamine pentaacetic acid | rapidly decomposes | – | – | –
